Earlier results in patent US20050124791A1, “Ion channel” (priority 2001, published 2005).

Test system: adenylate cyclase from the outer segment of the bovine retina
Details: membrane-associated and purified soluble enzyme

Question: For GMPPhT, which “stimulation of the enzyme” value is on record?
Answer: Its value is “Neither the membrane-associated nor the purified soluble enzyme can be stimulated”.

Question: Which “stimulation of the enzyme” value does the source give for `Nc1nc2c(ncn2[C@@H]2O[C@H](COP(=O)(O)OP(=O)(O)OP(=O)(O)O)[C@@H](O)[C@H]2O)c(=O)[nH]1` [GTP] here?
Answer: Its value is “Neither the membrane-associated nor the purified soluble enzyme can be stimulated”.

Question: Which “stimulation of the enzyme” value does the source give for `Nc1nc2c(ncn2[C@@H]2O[C@H](COP(=O)(O)OP(=O)(O)OP(O)(O)=S)[C@@H](O)[C@H]2O)c(=O)[nH]1` [GTPyS] here?
Answer: Its value is “Neither the membrane-associated nor the purified soluble enzyme can be stimulated”.
